# In paper PMC10897015, “Investigation of anti-nociceptive, anti-inflammatory potential and ADMET studies of pure compounds isolated from Isodon rugosus Wall. ex Benth” (Frontiers in Pharmacology, 2024):
# “And” between values parts separate entries of the source, which are not always exact repeats. Identical values can stand only once. Marks after values point to notes of the source that are not given here.
# Columns and labels:
# Swiss albino mice [1] = experiment: Formalin test with opioid receptor involvement; assay type: in vivo; settings: for formalin induced pain, licking time, individual values: single animals
# Experimental: An anti-nociceptive assessment was performed on Swiss albino mice of both sexes, sourced from the National Institute of Health, Islamabad, Pakistan. […] Mice of either sex were divided into different groups, with five mice in each group. […]
# The analgesic activity of I. rugosus was assessed through a formalin-induced licking test. The test samples were administered orally at specified doses.
# COX-2 = molecular target: T1, COX-2 (Homo sapiens, UniProt P35354); experiment: Cyclooxygenase-2 inhibitory activity; assay type: biochemical; settings: for Percent Inhibition (COX-2), single replicates: replicates 1-3
# T1 sequence (P35354 18-604): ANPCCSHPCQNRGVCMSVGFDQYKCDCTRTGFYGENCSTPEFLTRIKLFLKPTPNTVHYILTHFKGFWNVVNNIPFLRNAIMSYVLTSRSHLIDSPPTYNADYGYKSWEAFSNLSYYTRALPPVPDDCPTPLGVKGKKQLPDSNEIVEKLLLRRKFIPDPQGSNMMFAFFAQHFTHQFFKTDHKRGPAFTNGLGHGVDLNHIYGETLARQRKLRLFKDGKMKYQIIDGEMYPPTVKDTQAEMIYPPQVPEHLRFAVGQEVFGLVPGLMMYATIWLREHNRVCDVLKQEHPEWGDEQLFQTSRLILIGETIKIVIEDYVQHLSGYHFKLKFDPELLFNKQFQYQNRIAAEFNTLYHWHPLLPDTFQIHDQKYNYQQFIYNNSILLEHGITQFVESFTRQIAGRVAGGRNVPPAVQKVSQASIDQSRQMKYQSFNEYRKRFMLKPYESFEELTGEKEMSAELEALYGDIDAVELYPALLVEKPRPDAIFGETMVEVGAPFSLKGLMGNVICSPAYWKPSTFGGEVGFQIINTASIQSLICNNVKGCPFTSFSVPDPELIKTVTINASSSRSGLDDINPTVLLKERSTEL
# Experimental: An enzyme solution with a concentration of 300 U/ml was prepared and activated using ice for 5 min with a 50 µL cofactor solution containing glutathione (0.9 mM), TMPD (N,N,N,N_tetramethyl-p-phenylenediaminedihydrochloride) (0.24 mM), and hematin (1 mM) in Tris buffer (0.1 M) with pH 8. The enzyme solution (60 µL) and test samples (20 µL) with various concentrations were incubated at room temperature for 5 minutes. Celecoxib was used as a positive control in the current assay. The absorbance of the samples was measured at 570 nm after the samples had been incubated for 5 min. Arachidonic acid (30 mM, 20 µL) was added to initiate the reaction. The percent inhibition was calculated from the absorbance value per unit time.
# Swiss albino mice [2] = experiment: Hot plate test with opioid receptor involvement; assay type: in vivo; settings: for Reaction time on hot plate, individual values: single animals; for Reaction time on the hot plate: compounds 50 mg/kg, Mor 5 mg/kg, Nal 1 mg/kg
# 5-LOX = molecular target: T2, 5-LOX (Glycine max, UniProt P08170); experiment: Lipoxygenase (5-LOX) inhibitory activity; assay type: biochemical
# T2 sequence (P08170 1-839): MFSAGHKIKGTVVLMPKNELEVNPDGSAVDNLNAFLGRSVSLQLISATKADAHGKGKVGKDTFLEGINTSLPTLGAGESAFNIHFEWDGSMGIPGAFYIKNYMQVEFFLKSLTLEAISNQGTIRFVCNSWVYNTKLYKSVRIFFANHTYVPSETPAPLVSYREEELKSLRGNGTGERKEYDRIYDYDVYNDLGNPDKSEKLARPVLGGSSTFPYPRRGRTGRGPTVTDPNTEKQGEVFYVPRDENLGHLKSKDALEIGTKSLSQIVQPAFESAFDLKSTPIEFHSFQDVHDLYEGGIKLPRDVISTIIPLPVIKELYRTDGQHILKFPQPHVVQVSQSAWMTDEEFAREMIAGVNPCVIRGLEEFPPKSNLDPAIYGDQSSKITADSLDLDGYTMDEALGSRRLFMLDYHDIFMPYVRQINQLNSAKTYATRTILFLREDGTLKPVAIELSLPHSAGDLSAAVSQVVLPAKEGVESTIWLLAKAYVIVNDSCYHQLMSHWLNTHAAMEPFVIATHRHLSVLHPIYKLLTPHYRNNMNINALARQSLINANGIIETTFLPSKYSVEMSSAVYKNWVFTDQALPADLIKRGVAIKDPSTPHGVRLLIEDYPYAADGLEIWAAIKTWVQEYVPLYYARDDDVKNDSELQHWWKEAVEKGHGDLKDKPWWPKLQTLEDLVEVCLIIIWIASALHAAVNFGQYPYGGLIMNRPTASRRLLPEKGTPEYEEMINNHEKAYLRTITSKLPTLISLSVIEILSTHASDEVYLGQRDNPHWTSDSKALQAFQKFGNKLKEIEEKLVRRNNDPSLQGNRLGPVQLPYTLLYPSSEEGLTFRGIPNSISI
# Experimental: The enzyme solution with a concentration of 10,000 U/ml was prepared. […] A solution (80 mM) of linoleic acid (substrate) was made. Likewise, a 50 mM phosphate buffer solution with a pH of 6.3 was prepared. The substrate, enzyme, and buffer were combined in equal proportions, each in a 2 ml volume. […] The inhibition percentage was determined by comparing the absorbance of the test samples with that of the positive control.
# [3] = first phase, compounds 50 mg/kg, Mor 5 mg/kg, Nal 1 mg/kg
# [4] = second phase, compounds 50 mg/kg, Mor 5 mg/kg, Nal 1 mg/kg
smiles,measurement,setting,value
"O=C(O)C=Cc1ccc(O)c(O)c1 [Compound 1, 3,4-dihydroxy-cinnamic acid]","formalin induced pain, licking time, individual values","Swiss albino mice [1]; 0-5 minutes, listed as Comp 1",16.3 and 17.41 and 18.2
same,"formalin induced pain, licking time, individual values","Swiss albino mice [1]; 15-30 minutes, listed as Comp 1",27.57 and 28.5 and 29.36
same,Total time spent in licking 0–5 min,Swiss albino mice [1]; [3],17.30 ± 0.77 s
same,"Total time spent in licking, % inhibition (0–5 min)",Swiss albino mice [1]; [3],69.45%
same,Total time spent in licking 0–5 min,"Swiss albino mice [1]; first phase, compounds 50 mg/kg, Mor 5 mg/kg, Nal 1 mg/kg, listed as Comp 1",17.3033 s
same,Total time spent in licking 15–30 min,Swiss albino mice [1]; [4],28.48 ± 0.58 s
same,"Total time spent in licking, % inhibition (15–30 min)",Swiss albino mice [1]; [4],63.97^*** %
same,Total time spent in licking 15–30 min,"Swiss albino mice [1]; second phase, compounds 50 mg/kg, Mor 5 mg/kg, Nal 1 mg/kg, listed as Comp 1",28.4767 s
same,"% inhibition, COX-2 (mean ± SEM)","COX-2; 62.5 µg/ml, listed as Comp 1",51.9833%
same,inhibition at 62.5 µg/mL,"COX-2; 62.5 µg/ml, read-out: % inhibition, COX-2 (mean ± SEM)",51.6 ± 1.2%
same,"% inhibition, COX-2 (mean ± SEM)","COX-2; 250 µg/ml, listed as Comp 1",62.5167%
same,inhibition at 250 µg/mL,"COX-2; 250 µg/ml, read-out: % inhibition, COX-2 (mean ± SEM)",62.5 ± 0.84%
same,"% inhibition, COX-2 (mean ± SEM)","COX-2; 500 µg/ml, listed as Comp 1",68.4433%
same,inhibition at 500 µg/mL,"COX-2; 500 µg/ml, read-out: % inhibition, COX-2 (mean ± SEM)",68.42 ± 0.64%
same,"% inhibition, COX-2 (mean ± SEM)",COX-2; 1000 µg/ml,72.63 ± 0.57 %
same,inhibition at 1000 µg/mL,"COX-2; 1000 µg/ml, read-out: % inhibition, COX-2 (mean ± SEM)",72.8%
same,"Percent Inhibition (COX-2), single replicates","COX-2; 62.5, listed as Comp 1",51.85% and 51.98% and 52.12%
same,"Percent Inhibition (COX-2), single replicates","COX-2; 125, listed as Comp 1",58.82% and 58.96% and 58.41%
same,"Percent Inhibition (COX-2), single replicates","COX-2; 250, listed as Comp 1",62.79% and 63.2% and 61.56%
same,"Percent Inhibition (COX-2), single replicates","COX-2; 500, listed as Comp 1",68.4% and 67.99% and 68.94%
same,"Percent Inhibition (COX-2), single replicates","COX-2; 1000, listed as Comp 1",72.37% and 73.56% and 71.96%
same,"Reaction time on hot plate, individual values","Swiss albino mice [2]; at 15, listed as Comp-1",8.02 and 7.34 and 9.3
same,"Reaction time on hot plate, individual values","Swiss albino mice [2]; at 30, listed as Comp-1",7.19 and 7.2 and 7.18
same,"Reaction time on hot plate, individual values","Swiss albino mice [2]; at 45, listed as Comp-1",6.4 and 7.3 and 6.26
same,"Reaction time on hot plate, individual values","Swiss albino mice [2]; at 60, listed as Comp-1",8.1 and 9.57 and 7.46
same,"Reaction time on hot plate, individual values","Swiss albino mice [2]; at 90, listed as Comp-1",6.12 and 7.38 and 8.02
same,Reaction time on the hot plate,Swiss albino mice [2]; at 15 min,08.22 ± 0.07 s
same,Reaction time on the hot plate,"Swiss albino mice [2]; at 15 min, listed as Comp-1",8.22 s
same,Reaction time on the hot plate,"Swiss albino mice [2]; at 15 min, listed as compound 1",08.22 ± 0.07 s
same,Reaction time on the hot plate,Swiss albino mice [2]; at 30 min,07.19 ± 0.08 s
same,Reaction time on the hot plate,"Swiss albino mice [2]; at 30 min, listed as Comp-1",7.19 s
same,Reaction time on the hot plate,"Swiss albino mice [2]; at 30 min, listed as compound 1",07.19 ± 0.08 s
same,Reaction time on the hot plate,Swiss albino mice [2]; at 45 min,6.65 ± 0.05 s
same,Reaction time on the hot plate,"Swiss albino mice [2]; at 45 min, listed as Comp-1",6.653 s
same,Reaction time on the hot plate,"Swiss albino mice [2]; at 45 min, listed as compound 1",6.65 ± 0.05 s
same,Reaction time on the hot plate,Swiss albino mice [2]; at 60 min,8.38 ± 0.41 s
same,Reaction time on the hot plate,"Swiss albino mice [2]; at 60 min, listed as Comp-1",8.377 s
same,Reaction time on the hot plate,"Swiss albino mice [2]; at 60 min, listed as compound 1",8.38 ± 0.41 s
same,Reaction time on the hot plate,Swiss albino mice [2]; at 90 min,7.17 ± 0.57 s
same,Reaction time on the hot plate,"Swiss albino mice [2]; at 90 min, listed as Comp-1",7.173 s
same,Reaction time on the hot plate,"Swiss albino mice [2]; at 90 min, listed as compound 1",7.17 ± 0.57 s
same,inhibition at 62.5 µg/mL,"5-LOX; read-out: % inhibition 5-LOX (mean ± SEM), 62.5 µg/ml",59.4 ± 0.65%
same,inhibition at 250 µg/mL,"5-LOX; read-out: % inhibition 5-LOX (mean ± SEM), 250 µg/ml",66.9 ± 1.04%
same,inhibition at 500 µg/mL,"5-LOX; read-out: % inhibition 5-LOX (mean ± SEM), 500 µg/ml",71.8 ± 0.55%
same,inhibition at 1000 µg/mL,"5-LOX; read-out: % inhibition 5-LOX (mean ± SEM), 1000 µg/ml",77 ± 1.49%
